Experimental findings from ChEMBL document CHEMBL3779868, “Tetrahydroprotoberberine alkaloids with dopamine and σ receptor affinity” (Bioorg Med Chem, 2016) are described below.

SMILES strings stand for the structures. Bounds are passed on as bounds.

For experiment [1], the species on record is Homo sapiens. Description: Selectivity ratio of Ki for human dopamine D2 receptor to human dopamine D3 receptor.
The species entered for experiment [2] is Homo sapiens. Description: Selectivity ratio of Ki for human sigma1 receptor to human sigma2 receptor.
For experiment [3], the species on record is Homo sapiens. Description: Selectivity ratio of Ki for human dopamine D3 receptor to human dopamine D1 receptor.
The next experiment deals with D(1A) dopamine receptor (Homo sapiens, UniProt P21728). Description: Displacement of [3H][…] from human dopamine D1 receptor by PDSP assay. For orientation: Displacement assays read how much labelled ligand stays bound in the presence of the test substance.
D(1A) dopamine receptor, sequence (P21728 whole entry): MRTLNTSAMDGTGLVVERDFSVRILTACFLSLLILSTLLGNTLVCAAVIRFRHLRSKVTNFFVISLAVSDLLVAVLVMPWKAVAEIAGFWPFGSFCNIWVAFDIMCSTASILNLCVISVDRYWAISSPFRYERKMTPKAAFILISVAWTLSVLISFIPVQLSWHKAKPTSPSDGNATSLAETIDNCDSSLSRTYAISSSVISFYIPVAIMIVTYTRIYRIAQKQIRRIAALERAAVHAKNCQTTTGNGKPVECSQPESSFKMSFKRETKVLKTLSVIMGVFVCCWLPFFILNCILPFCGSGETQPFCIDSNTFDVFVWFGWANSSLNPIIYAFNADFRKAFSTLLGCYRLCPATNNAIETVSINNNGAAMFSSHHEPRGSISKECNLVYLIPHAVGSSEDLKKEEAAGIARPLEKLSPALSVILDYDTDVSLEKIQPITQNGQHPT
Experiment [4] is described as follows: Displacement of [3H]DTG from human sigma2 receptor by PDSP assay.
Experiment [5] deals with Sigma non-opioid intracellular receptor 1 (Homo sapiens, UniProt Q99720). Description: Displacement of [3H](+)-pentazocine from human sigma1 receptor by PDSP assay.
Sigma non-opioid intracellular receptor 1, sequence (Q99720 whole entry): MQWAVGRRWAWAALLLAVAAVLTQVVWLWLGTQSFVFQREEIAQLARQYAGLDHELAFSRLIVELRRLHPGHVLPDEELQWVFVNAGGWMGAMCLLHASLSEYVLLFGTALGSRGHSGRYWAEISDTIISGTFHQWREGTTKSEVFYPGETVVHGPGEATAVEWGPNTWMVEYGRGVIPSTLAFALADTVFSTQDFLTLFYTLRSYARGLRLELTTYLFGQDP
For experiment [6], the target named is T1, D(2) dopamine receptor (Homo sapiens, UniProt P14416). Description: Displacement of [3H]N-methylspiperone from human dopamine D2 receptor by PDSP assay.
T1 sequence (P14416 whole entry): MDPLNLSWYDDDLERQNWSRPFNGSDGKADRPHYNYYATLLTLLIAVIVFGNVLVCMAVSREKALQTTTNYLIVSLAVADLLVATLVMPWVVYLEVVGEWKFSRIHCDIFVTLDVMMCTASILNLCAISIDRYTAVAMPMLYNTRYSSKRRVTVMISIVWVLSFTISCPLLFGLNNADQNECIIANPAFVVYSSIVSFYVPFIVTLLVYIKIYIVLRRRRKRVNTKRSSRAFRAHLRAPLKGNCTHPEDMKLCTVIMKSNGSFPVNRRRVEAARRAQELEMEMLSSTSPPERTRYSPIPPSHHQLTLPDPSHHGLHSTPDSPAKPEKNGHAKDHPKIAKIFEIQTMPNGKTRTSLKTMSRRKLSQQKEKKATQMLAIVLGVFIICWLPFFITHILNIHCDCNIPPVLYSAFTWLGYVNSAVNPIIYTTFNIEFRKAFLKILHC
For experiment [7], the target named is T2, D(3) dopamine receptor (Homo sapiens, UniProt P35462). Description: Displacement of [3H]N-methylspiperone from human dopamine D3 receptor by PDSP assay.
T2 sequence (P35462 whole entry): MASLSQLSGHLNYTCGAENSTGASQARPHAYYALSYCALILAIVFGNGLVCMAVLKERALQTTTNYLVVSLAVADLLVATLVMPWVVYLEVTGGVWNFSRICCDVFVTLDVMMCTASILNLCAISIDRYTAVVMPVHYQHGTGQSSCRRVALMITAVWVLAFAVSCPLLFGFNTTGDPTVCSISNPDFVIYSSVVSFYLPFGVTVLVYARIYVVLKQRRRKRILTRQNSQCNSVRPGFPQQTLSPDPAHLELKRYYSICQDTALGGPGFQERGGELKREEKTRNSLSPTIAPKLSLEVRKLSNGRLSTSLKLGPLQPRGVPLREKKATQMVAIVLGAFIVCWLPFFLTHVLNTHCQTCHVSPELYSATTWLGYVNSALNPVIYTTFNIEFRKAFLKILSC
The species named for experiment [8] is Homo sapiens. Description: Selectivity ratio of Ki for human dopamine D2 receptor to human dopamine D1 receptor.
The subject of another experiment is MDA-MB-231. Description: Cytotoxicity against human MDA-MB-231 cells assessed as cell viability after 24 hrs by Alamar blue assay. The class given is functional, cell-based. To be noted: MDA-MB-231, 24 h. On the technique in general: The colour change of resazurin is a common sign of viable cells or microbes.
In experiment [9] the target is T1, D(2) dopamine receptor. Description: Displacement of [3H]N-methylspiperone from human dopamine D2 receptor at 50 uM by PDSP assay.
Experiment [10] in a line: Binding affinity to sigma2 receptor (unknown origin) by PDSP assay. Also noted: species or system Homo sapiens.
The target of experiment [11] is T2, D(3) dopamine receptor. The experiment is described as follows: Binding affinity to dopamine D3 receptor (unknown origin) by PDSP assay.

A word on the Ki: it is a dissociation constant, usually derived from enzyme kinetics or from competition with a known ligand. Take `CCOc1ccc2c(c1OC)CN1CCc3cc(OC)c(O)cc3C1C2` (stereo unspecified): the Ratio Ki was found to be 3.6 in the experiment listed under Homo sapiens [1], 95 in the experiment filed under Homo sapiens [2], 3.5 in the experiment listed under Homo sapiens [3] and 12.8 in the experiment listed under Homo sapiens [8]. Also, the Ki at D(1A) dopamine receptor was 12.4 nM; in [4], 1.3 nM; in experiment [5], 124 nM; at D(2) dopamine receptor [6] (read-out: Ki), 159 nM; on D(3) dopamine receptor [7] it was 44 nM.

`COc1cc(CCN(C)Cc2cccc(O)c2OC)ccc1O`: the Ki at D(1A) dopamine receptor is 3110 nM; in experiment [4], 227 nM; in [5] it was 122 nM; at D(2) dopamine receptor [6] (read-out: Ki) it was > 10000 nM; on D(3) dopamine receptor [7] it was 2680 nM.

Regarding `COc1cc2c(cc1O)C1Cc3ccc(O)c(OC)c3CN1CC2` (racemic), the Ratio Ki in the experiment filed under Homo sapiens [1] came out at 1.1; in the experiment filed under Homo sapiens [2], 30; in the experiment listed under Homo sapiens [3], 18; in the experiment filed under Homo sapiens [8] it was 20.6. For the same compound, the inhibition constant Ki at D(1A) dopamine receptor was found to be 5.6 nM; in [4] it was 9 nM; in experiment [5], 269 nM; on D(2) dopamine receptor [6] (read-out: Ki), 116 nM; at D(3) dopamine receptor [7], 101 nM.

With `CCCCOc1ccc2c(c1OC)CN1CCc3cc(OC)c(O)cc3C1C2` (stereo unspecified), the Ki in experiment [4] was 49 nM; in experiment [5], 13 nM; on D(2) dopamine receptor [6] (read-out: Ki), 121 nM; at D(3) dopamine receptor [7] it was 65 nM.

Turning to `COc1cc2c(cc1O)C(C)N(Cc1cccc(O)c1OC)CC2` (stereo unspecified), the inhibition constant (Ki) at D(1A) dopamine receptor came out at 833 nM; in [4] it was 301 nM; in [5] it was 130 nM; at D(2) dopamine receptor [6] (read-out: Ki) it was 1100 nM; at D(3) dopamine receptor [7], 1370 nM.

Consider `CCN(CCc1ccc(O)c(OC)c1)Cc1cccc(O)c1OC`, for which the Ki is > 10000 nM on D(1A) dopamine receptor; 788 nM in experiment [4]; 350 nM in experiment [5]; > 10000 nM on D(2) dopamine receptor [6] (read-out: Ki); 1810 nM at D(3) dopamine receptor [7].

As to `COc1cc2c(cc1O)C1Cc3ccc(OCCCO)c(OC)c3CN1CC2` (stereo unspecified), the Ratio Ki turned out to be 1.9 in the experiment filed under Homo sapiens [1], 13.9 in the experiment filed under Homo sapiens [2], 16.4 in the experiment listed under Homo sapiens [3] and 31.5 in the experiment listed under Homo sapiens [8]. The Ki on D(1A) dopamine receptor amounted to 6.7 nM; in experiment [4] it was 3.8 nM; in [5], 53 nM; on D(2) dopamine receptor [6] (read-out: Ki), 211 nM; at D(3) dopamine receptor [7] it was 110 nM.

Consider `COc1cc2c(cc1O)C1Cc3ccc(OCC4CC4)c(OC)c3CN1CC2` (stereo unspecified), for which the Ki on D(1A) dopamine receptor worked out at 12 nM; in [4] it was 2.4 nM; in [5] it was 12 nM.

For orientation: IC50 means the concentration that gives 50% inhibition. As to `COc1cc2c(cc1O)C1Cc3ccc(OC)c(OC)c3CN1CC2` (stereo unspecified), the Ki in experiment [4] came out at 1 nM; at D(3) dopamine receptor [7], 37 nM. The IC50 in the experiment on MDA-MB-231 turned out to be 178000 nM.

Usually inhibition stands for the drop in the measured response relative to a control, in per cent. Consider `CCCCCCOc1ccc2c(c1OC)CN1CCc3cc(OC)c(O)cc3C1C2` (stereo unspecified), for which the Ratio Ki was determined as 0.35 in the experiment filed under Homo sapiens [2] and 5.5 in the experiment filed under Homo sapiens [3]. For the same compound, the inhibition constant Ki at D(1A) dopamine receptor is 40 nM; in experiment [4], 107 nM; in experiment [5], 37 nM; on D(2) dopamine receptor [6] it was “Not Active”; on D(3) dopamine receptor [7], 220 nM. In addition, the inhibition at D(2) dopamine receptor [9] is < 50%.

Regarding `CCCCCOc1ccc2c(c1OC)CN1CCc3cc(OC)c(O)cc3C1C2` (stereo unspecified), the Ratio Ki turned out to be 2.8 in the experiment filed under Homo sapiens [1], 1.22 in the experiment listed under Homo sapiens [2], 5.3 in the experiment filed under Homo sapiens [3] and 14.9 in the experiment filed under Homo sapiens [8]. Moreover, the Ki worked out at 19 nM on D(1A) dopamine receptor; 97 nM in experiment [4]; 119 nM in [5]; 283 nM on D(2) dopamine receptor [6] (read-out: Ki); 101 nM at D(3) dopamine receptor [7].

On to `COc1cc2c(cc1O)[C@@H]1Cc3ccc(O)c(OC)c3CN1CC2` [STEPHOLIDINE], for which the Ki stood at 54 nM in experiment [10] and 30 nM at D(3) dopamine receptor [11].

For `CCCOc1ccc2c(c1OC)CN1CCc3cc(OC)c(O)cc3C1C2` (stereo unspecified), the Ki at D(1A) dopamine receptor came to 7.8 nM; in experiment [4], 6.7 nM; in [5], 57 nM; at D(2) dopamine receptor [6] (read-out: Ki), 99 nM; on D(3) dopamine receptor [7], 53 nM.
